What was measured:
[1] = tested on: human PBMC; experiment: IL-23 in supernatants of human PBMC, ELISA (Example 6, Table 25); assay type: cell-based
Protocol: (§1) Peripheral blood was drawn from healthy volunteers (with approval from the relevant ethical committee in Denmark). Heparinized blood was diluted 1/1 v/v with RPMI and were subjected to Ficoll density centrifugation within 2 h of drawing. Plasma was collected from the top from individual donors and was kept on ice until it was used at 2% in the culture medium (autologous culture medium). Isolated PBMC were resuspended in autologous culture medium and seeded in 96-well culture plates with 255.000 cells per well in a total of 200 μl. […] The concentrations used for stimulation were optimized on 3 different donors in initial experiments, for LPS two different concentrations were used to be sure to be on a cytokine level that is possible to modulate. In some experiments PBMC were treated with Dexamethason and Indomethacin alone and together with LPS or LTA as a control on downregulation of inflammatory cytokines. The supernatants were collected after incubation at 37° C. for 24 hours, and stored at −80° C. until cytokine measurement. Viability was measured by Alamar Blue (Biosource, DALL 1100) in all experiments and in some cases also by MTS (Promega) according to manufacturer's instruction and was in some experiments also judged by counting of the cells by a Nucleocounter.
Example 6 was carried out essentially as described in Example 4 for human PBMCs; however, the readout was IL-23 instead of TNF, IL-1β and IL-10. Moreover, the effect of rhBD2 on human monocyte-derived dendritic cells was also investigated.
Cell culture supernatants were collected and stored at −80° C. Amounts of IL-23 was measured by standard sandwich ELISA using commercially available antibodies and standards according to the manufacturer's protocols (eBioscience).
All experiments were performed at least twice, with representative results shown. The data presented are expressed as mean plus/minus standard deviation […]. […] Differences were considered significant for p<0.05.

[2] = tested on: human peripheral blood mononuclear cells (PBMC); experiment: TNF production from LPS-treated human PBMC, CBA (Example 5); assay type: cell-based; settings: Table 21, concentration not given
Protocol: as §1
(§2) Cytokine production in supernatants was measured by flow cytometry with a human inflammation cytometric bead array (CBA) according to manufacturer's instructions (BD) on a FACSarray flow cytometer. The following cytokines were measured: IL-8, IL-1β, IL-10, TNF, IL-12 p70, IL-6. In some experiments, cytokines were measured by ELISA kits from R&D systems (IL-10, TNF-α, IL-1β) according to the manufacturer′ instruction.
(§3) Example 5 was carried out essentially as described in Example 4.
(§4) In each table, all samples were tested on the same donor. SD means standard deviation.

[3] = tested on: human peripheral blood mononuclear cells (PBMC); experiment: IL-10 production from LPS-treated human PBMC, CBA (Example 5); assay type: cell-based; settings: Table 22, concentration not given
Protocol: as §1, §2, §4

[4] = tested on: human peripheral blood mononuclear cells (PBMC); experiment: IL-1β production from LPS-treated human PBMC, CBA (Example 5, Table 23); assay type: cell-based; settings: concentration of test compound not given
Protocol: as §1, §2, §3, §4

[5] = tested on: human peripheral blood mononuclear cells (PBMC); experiment: TNF production from LPS-treated human PBMC, CBA (Example 7, Table 26); assay type: cell-based
Protocol: as §1, §2
(§5) Example 7 was carried out essentially as described in Example 4 for human PBMCs. […] The amino acid sequence of mBD3 is shown in SEQ ID NO:6. Mouse PBMCs were prepared as described below.

[6] = tested on: mouse peripheral blood mononuclear cells (PBMC); experiment: TNF production from LPS-treated mouse PBMC, CBA (Example 7); assay type: cell-based, mouse (NMRI)
Protocol: as §5
Mouse peripheral blood mononuclear cells were isolated from blood of ten NMRI mice. In short, heparinized blood was diluted 1/1 v/v with RPMI and subjected to Ficoll density centrifugation within 2 h of drawing. Plasma was collected from the top and discarded. Isolated PBMC were resuspended in culture medium (RPMI 1640 (Gibco, 42401) w/ 1% penicillin and streptomycin and 1% L-Glutamine) and seeded in 96-well culture plates with 115.500 cells per well in a total of 200 μl. […] The supernatants were collected after incubation at 37° C. for 24 hours, and stored at −80° C. until cytokine measurement.
Cytokine production in supernatants was measured by flow cytometry with a mouse inflammation cytometric bead array (CBA) according to manufacturer's instructions (BD) on a FACSarray flow cytometer.

[7] = LPS 20 ng/ml, test compound 1 μg/ml
[8] = Medium (no LPS), test compound 1 μg/ml

C[C@@H]1C[C@H]2[C@@H]3CCC4=CC(=O)C=C[C@]4(C)[C@@]3(F)[C@@H](O)C[C@]2(C)[C@@]1(O)C(=O)CO [Dexamethasone]
IL-23 pg/ml ([1]; Control (medium), test compound 3.5 ng/ml): 222 pg/mL | IL-23 pg/ml ([1]; LTA 5 μg/ml, test compound 3.5 ng/ml): 223 pg/mL

Infliximab: anti-inflammatory compound, positive control on downregulation of TNF [reference compound]
TNF ([2]; LPS 0.6 ng/ml): 0 pg/mL | TNF % of control ([2]; LPS 0.6 ng/ml): 0% | TNF ([2]; LPS 20 ng/ml): 0 pg/mL | TNF % of control ([2]; LPS 20 ng/ml): 0% | TNF ([2]; Medium): 0 pg/mL | IL-10 ([3]; LPS 0.6 ng/ml): 46 pg/mL | IL-10 % of control ([3]; LPS 0.6 ng/ml): 69% | IL-10 ([3]; LPS 20 ng/ml): 63 pg/mL | IL-10 % of control ([3]; LPS 20 ng/ml): 56% | IL-10 ([3]; Medium): 0 pg/mL | IL-1β ([4]; LPS 0.6 ng/ml): 636 pg/mL | IL-1β % of control ([4]; LPS 0.6 ng/ml): 86% | IL-1β ([4]; LPS 20 ng/ml): 2704 pg/mL | IL-1β % of control ([4]; LPS 20 ng/ml): 106% | IL-1β ([4]; Medium (no LPS)): 0 pg/mL | IL-23 pg/ml ([1]; Control (medium), test compound 1 μg/ml): 227 pg/mL | IL-23 pg/ml ([1]; LPS 0.6 ng/ml, test compound 1 μg/ml): 356 pg/mL | IL-23 pg/ml [1, 7]: 373 pg/mL | IL-23 pg/ml ([1]; LTA 5 μg/ml, test compound 1 μg/ml): 349 pg/mL | TNF [5, 7]: 1 pg/mL | TNF [5, 8]: 0 pg/mL | TNF ([6]; 1 μg/ml, LPS 20 ng/ml): 2119 pg/mL | TNF ([6]; 1 μg/ml, Medium): 530 pg/mL

mBD3: mouse beta defensin 3 (SEQ ID NO:6), prepared with the same protocol as hBD2 (KINNPVSCLRKGGRCWNRCIGNTRQIGSCGVPFLKCCKRK; mat_peptide (1)..(40); listed as Mus musculus)
TNF [5, 7]: 384 pg/mL | TNF ([5]; LPS 20 ng/ml, test compound 10 μg/ml): 51 pg/mL | TNF ([5]; LPS 20 ng/ml, test compound 100 μg/ml): 166 pg/mL | TNF [5, 8]: 2 pg/mL | TNF ([5]; Medium (no LPS), test compound 10 μg/ml): 2 pg/mL | TNF ([5]; Medium (no LPS), test compound 100 μg/ml): 39 pg/mL | secretion of TNF ([5]; human PBMCs (Table 26)): downregulating the secretion of TNF from human PBMCs to the same extend as hBD2 and dexamethason | TNF ([6]; 1 μg/ml, LPS 20 ng/ml): 1600 pg/mL | TNF ([6]; 1 μg/ml, Medium): 347 pg/mL | TNF ([6]; 10 μg/ml, LPS 20 ng/ml): 297 pg/mL | TNF ([6]; 10 μg/ml, Medium): 180 pg/mL | TNF ([6]; 100 μg/ml, LPS 20 ng/ml): 195 pg/mL | TNF ([6]; 100 μg/ml, Medium): 182 pg/mL

Source: patent publication US9279010B2, “Treatment of inflammatory bowel diseases with mammal beta defensins” (Defensin Therapeutics ApS, priority 2008, dated 2016)
